Where only a bound is given, the exact number is not on record here.

This assay concerns the target T1, Ubiquitin carboxyl-terminal hydrolase isozyme L3 (Homo sapiens, UniProt P15374).
T1 sequence (P15374 whole entry): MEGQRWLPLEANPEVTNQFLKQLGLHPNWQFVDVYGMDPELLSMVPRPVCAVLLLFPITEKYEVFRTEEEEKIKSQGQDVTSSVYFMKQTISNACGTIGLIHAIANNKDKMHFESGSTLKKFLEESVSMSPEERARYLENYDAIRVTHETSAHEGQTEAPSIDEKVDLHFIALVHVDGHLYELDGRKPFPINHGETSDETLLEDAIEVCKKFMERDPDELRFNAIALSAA
Kind of assay: Enzyme Inhibition Assay. Conditions: pH 7.8; 22 °C. Here is the method:
Enzyme reactions were carried out on Costar 96-well black assay plates. After the reaction, AMC fluorescence (excitation wavelength: 355 nm, emission wavelength: 460 nm) was subsequently measured 40 times every 3 s with a Wallac 1420 multi-label counter. Initial velocities (from 0 to 30 s) were used for IC50 determination, using GraphPad Prism 4 software.

In turn, `Cc1ccc(C(=O)C2C(=O)C(=O)N(Cc3ccccc3)C2c2cccnc2)o1` (stereo not drawn) [1-benzyl-3-hydroxy-4-[(5-methylfuran-2-yl)carbonyl]-5-(pyridin-3-yl)-2,5-dihydro-1H-pyrrol-2-one] showed an IC50 of 103 µM.

For `Cc1ccc(C(=O)C2C(=O)C(=O)N(Cc3cccnc3)C2c2ccc(F)cc2)o1` (stereo not drawn) [5-(4-fluorophenyl)-3-hydroxy-4-[(5-methylfuran-2-yl)carbonyl]-1-(pyridin-3-ylmethyl)-2,5-dihydro-1H-pyrrol-2-one], the IC50 came out at 123 µM. As for `CCS(=O)(=O)Nc1cccc(C2=NN(C(C)=O)C(c3cccs3)C2)c1` (stereo not drawn) [N-{3-[1-acetyl-5-(thiophen-2-yl)-4,5-dihydro-1H-pyrazol-3-yl]phenyl}ethane-1-sulfonamide], the figure is > 331 µM.

Regarding `COc1ccc(N(CC(=O)NC2CC2)S(=O)(=O)c2ccc(C)cc2)cc1` [N-cyclopropyl-2-[(4-methoxyphenyl)(4-methylbenzene)sulfonamido]acetamide], the half-maximal inhibitory concentration (IC50) was > 334 µM. As for `COc1cccc(N(CC(=O)NC2CCCC2)S(=O)(=O)c2ccccc2)c1` [2-[benzene(3-methoxyphenyl)sulfonamido]-N-cyclopentylacetamide], the figure is > 386 µM; as for `COc1ccc(C2C(C(=O)c3cccs3)C(=O)C(=O)N2c2nncs2)cc1` (stereo not drawn), 154 µM; as for `COc1ccc(S(=O)(=O)N(CC(=O)NC2CC2)c2ccc(C)cc2)cc1` [N-cyclopropyl-2-[(4-methoxybenzene)(4-methylphenyl)sulfonamido]acetamide], > 401 µM. Regarding `Nc1nc(CSc2nnc(-c3ccco3)n2-c2ccccc2)cs1` [4-({[5-(furan-2-yl)-4-phenyl-4H-1,2,4-triazol-3-yl]sulfanyl}methyl)-1,3-thiazol-2-amine], the IC50 is > 387 µM.

These data come from BindingDB's records for doi:10.1016/j.bmc.2007.07.016 (Waseda University, 2007).
